Measurements reported in patent publication US20190192559A1, “COMBINATION OF PROTEASOME INHIBITORS AND ANTI-CD30 ANTIBODIES” (Millennium Pharmaceuticals, Inc., priority 2016, published 2019).

Experiments:
Format in all cases: in vivo
[1] = test system: SR-786 tumor cells (CD30+ human large T cell lymphoma cell line); test: SR-786 subcutaneous xenograft tumor efficacy model in CB17 SCID mice; details: for Average tumor volume day 21: in mm³ (unit assumed)
Procedure: (§1) SR-786 (6.0×10^6) tumor cells in RPMI-1640 media were aseptically injected into the subcutaneous space in the right dorsal flank of CB17 SCID female mice (Charles River Lab) using a 26 G ⅝ needle. SR-786 is a CD30+ human large T cell lymphoma cell line and was obtained from DSMZ (Braunschweig, Germany).
(§2) Brentuximab vedotin (SGN-35), one vial (Seattle Genetics, 50 mg) was reconstituted in 50 ml 0.9% saline to give a stock solution of 1 mg/ml. The stock solution was then diluted again in 0.9% saline to reach the desired concentration and administered by intraperitoneal injection (IP) on q4D schedule for 21 days (SR-786), 14 days (Karpas-299) or 24 days (SUDHL-2) at 0.2 mg/kg, 0.4 mg/kg and 0.8 mg/kg.
(§3) The compound of formula (IIIa) was formulated in either 5% hydroxypropyl-beta-cyclodextrin (for SR-786 and Karpas-299 studies) or in 20% hydroxypropyl-beta-cyclodextrin for SUDHL-2 study. The amounts listed below in Tables 1a-3b are calculated based on the compound of formula (IV). The drug was administered by IV injection (1 cc syringe, 20-22 gauge) on BIW schedule at either 2 mg/kg or 8 mg/kg for 21 days (SR-786), 14 days (Karpas-299), or 24 days (SUDHL-2).
(§4) Tumors were measured twice weekly using a vernier caliper. Tumor volumes were calculated using standard procedures (0.5×(length×width^2)). When the tumors reached a volume of approximately 200 mm^3 for SR-786, 150 mm^3 for Karpas-299 and SUDHL-2, mice were randomized into 7-8 groups as described in the tables below, and injected with vehicle, compound of formula (IV) or SGN-35 or the combination of compound of formula (IV) with SGN-35, at various doses as described below in Tables 1a, 2a and 3a. Tumor size and body weight were measured approximately twice a week for the duration of the study. Mice were euthanized when their tumor volume reached 10% of their body weight, or when the average tumor volume of a treatment or control group reached approximately 2000 mm^3. Tumor growth continued to be monitored after the dosing period in this study. Tumor volume on study day 21 for all groups is shown in table 1a for SR-786 study; on study day 14 for all groups for Karpas-299 study in table 2a and on study day 24 for all groups for SUDHL-2 study in table 3a. Average tumor volume is reported as a function of time for all groups in FIG. 1 (SR-786), FIG. 2 (Karpas-299) and FIG. 3 (SUDHL-2). Tumor volumes were reported till the end of the study to capture re-growth.
(§5) The synergy analysis is based on the tumor volume data from day 0 to 21 for SR-786, days 0 to 14 for Karpas-299 and days 0 to 24 for SUDHL-2 and presented in table 1b, 2b and 3b. Volume measurements below 25 cubic mm are excluded from the analysis because very low volumes cannot be measured accurately. The remaining measurements are log transformed and fit to a simple linear model with the measurement day as a covariate. The data are fit separately for the different animals to yield an estimated tumor growth rate for each animal in each treatment group. Based on the growth rates, the synergy score for the combination of agents A and B is defined as
(§6) 100*(mean(μAB)−mean(μA)−mean(μB)+mean(μctl))/mean(μctl):
(§7) where μAB, μA, μB, and μctl are the mean tumor growth rates for animals in the combination group, the A group, the B group, and the control group, respectively. The standard error of the synergy score is computed based on the variation in the growth rates among the animals. […] If the P-value is above 0.05, then the combination is considered to be additive. If the P-value is below 0.05, and the synergy score is less than zero, then the combination is considered to be synergistic. […] Otherwise, the combination is classified as antagonistic.

[2] = test system: SUDHL-2 tumor cells (CD30+ human large cell lymphoma cell line); test: SUDHL-2 subcutaneous xenograft tumor efficacy model in CB17-SCID mice; details: for Average tumor volume day 24: in mm³ (unit assumed)
Procedure: SUDHL-2 (2×10^6) tumor cells in RPMI-1640 media were aseptically injected into the subcutaneous space in the right dorsal flank of CB17-SCID female mice (Shanghai SLAC Laboratory Animal Co., LTD). SUDHL-2 is a CD30+ human large cell lymphoma cell line and was obtained from ATCC (Manassas, Va.).
as §2, §3, §4, §5, §6, §7

[3] = test system: Karpas-299 tumor cells (CD30+ human large T cell lymphoma cell line); test: Karpas-299 subcutaneous xenograft tumor efficacy model in CB17 SCID mice; details: for Average tumor volume day 14: in mm³ (unit assumed)
Procedure: as §1, with “Karpas-299 (0.5×10^6)” for “SR-786 (6.0×10^6)”, “Rive” for “River”, “Karpas-299” for “SR-786”
as §2, §3, §4, §5, §6, §7

[4] = compound of formula (IV) 2 mg/kg BIW IV
[5] = compound of formula (IV) 2 mg/kg IV
[6] = compound of formula (IV) 8 mg/kg BIW IV
[7] = compound of formula (IV) 8 mg/kg IV
[8] = SGN-35 0.2 mg/kg IP, compared to the control vehicle group
[9] = SGN-35 0.4 mg/kg IP, compared to the control vehicle group
[10] = SGN-35 0.8 mg/kg IP, compared to the control vehicle group

## CC(C)C[C@H](NC(=O)CNC(=O)c1cc(Cl)ccc1Cl)B(O)O [compound of formula (IV), [(1R)-1-({[(2,5-dichlorobenzoyl)amino]acetyl}amino)-3-methylbutyl]boronic acid]
[1]; [4]
  Average tumor volume day 21: 1221.5
[1]; [5]
  tumor growth inhibition: 10%
[1]; [6]
  Average tumor volume day 21: 500.6
[1]; [7]
  tumor growth inhibition: 63%
[2]; [4]
  Average tumor volume day 24: 1449.3
[2]; [5]
  tumor growth inhibition: 6%
[2]; [6]
  Average tumor volume day 24: 1129.5
[2]; [7]
  tumor growth inhibition: 26%
[2]; two compound of formula (IV) treated groups (Group 2 and 3; 2 mg/kg and 8 mg/kg)
  day on which group was sacrificed: 27 days
[3]; [4]
  Average tumor volume day 14: 1600
[3]; [5]
  tumor growth inhibition: −16%
[3]; [6]
  Average tumor volume day 14: 1971.5
[3]; [7]
  tumor growth inhibition: −43%
[3]; compound of formula (IV) single agent groups (2 mg/kg and 8 mg/kg)
  day on which group was sacrificed due to high tumor burden: 14 days

## SGN-35
[1]; SGN-35 0.2 mg/kg IP
  tumor growth inhibition: 3%
[1]; SGN-35 0.2 mg/kg Q4D IP
  Average tumor volume day 21: 1330
[1]; SGN-35 0.4 mg/kg IP
  tumor growth inhibition: 70%
[1]; SGN-35 0.4 mg/kg Q4D IP
  Average tumor volume day 21: 409.9
[1]; SGN-35 0.8 mg/kg IP
  tumor growth inhibition: 100%
[1]; SGN-35 0.8 mg/kg Q4D IP
  Average tumor volume day 21: 0
[1]; SGN-35 0.8 mg/kg single agent
  tumors found in mice on day 76: No tumors were found in any mice
[1]; SGN-35 0.8 mg/kg single agent (Group 6)
  mice tumor free on day 21 post treatment: 7/7
[2]; SGN-35 0.2 mg/kg (Group 4)
  day on which group was sacrificed: 27 days
[2]; [8]
  tumor growth inhibition: 12%
[2]; SGN-35 0.2 mg/kg Q4D IP
  Average tumor volume day 24: 1352.3
[2]; SGN-35 0.4 mg/kg (Group 5)
  day on which group was sacrificed: 45 days
[2]; [9]
  tumor growth inhibition: 50%
[2]; SGN-35 0.4 mg/kg Q4D IP
  Average tumor volume day 24: 774.2
[2]; SGN-35 0.8 mg/kg (Group 6)
  day on which group was sacrificed: 59 days
[2]; [10]
  tumor growth inhibition: 82%
[2]; SGN-35 0.8 mg/kg Q4D IP
  Average tumor volume day 24: 274.9
[3]; [8]
  tumor growth inhibition: 52%
[3]; SGN-35 0.2 mg/kg Q4D IP
  Average tumor volume day 14: 647.4
[3]; SGN-35 0.2 mg/kg single agent
  day on which group was sacrificed: 25 days
[3]; [9]
  tumor growth inhibition: 100%
[3]; SGN-35 0.4 mg/kg Q4D IP
  Average tumor volume day 14: 0
[3]; SGN-35 0.4 mg/kg single agent
  mice tumor free at day 14: All the mice
[3]; [10]
  tumor growth inhibition: 100%
[3]; SGN-35 0.8 mg/kg Q4D IP
  Average tumor volume day 14: 0
[3]; SGN-35 0.8 mg/kg single agent
  mice tumor free at day 14: All the mice
